Structures can show the parent of a compound that is named as a salt. Where two headings read alike, the source gives them in different places.
How the values were obtained:
Format in all cases: biochemical
[1] = target: T1, recombinant human MAO-B (monoamine oxidase-B) (Homo sapiens, UniProt P27338); assay: Activity on recombinant human MAO-B, Amplex Red method, 1 mM benzylamine substrate; settings: read-out: Inhibitory Activity (IC50, nM) MAO-B
T1 construct: purchased Sigma-Aldrich
T1 sequence (P27338 1-520): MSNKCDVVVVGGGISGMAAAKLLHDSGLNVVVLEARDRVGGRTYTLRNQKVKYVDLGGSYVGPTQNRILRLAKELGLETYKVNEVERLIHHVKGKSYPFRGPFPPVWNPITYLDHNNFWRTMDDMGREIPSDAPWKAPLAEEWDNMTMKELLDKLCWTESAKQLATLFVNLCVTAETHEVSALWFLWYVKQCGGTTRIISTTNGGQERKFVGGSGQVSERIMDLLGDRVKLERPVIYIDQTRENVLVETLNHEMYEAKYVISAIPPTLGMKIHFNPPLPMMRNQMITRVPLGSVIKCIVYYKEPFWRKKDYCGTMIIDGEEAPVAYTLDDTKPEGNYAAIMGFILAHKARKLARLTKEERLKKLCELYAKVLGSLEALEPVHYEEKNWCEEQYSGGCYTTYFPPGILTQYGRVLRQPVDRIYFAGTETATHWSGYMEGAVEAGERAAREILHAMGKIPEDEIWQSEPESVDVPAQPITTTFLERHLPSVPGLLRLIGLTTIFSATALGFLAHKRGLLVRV
Outline: (§1)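 8-point, 1:3 dose-response, four-parameter logistic IC50 from reduction in fluorescence rate versus DMSO control. HRP/Amplex Red detection of H2O2 (ex 544, em 590 nm) after 30 min, 37 °C compound–enzyme preincubation in pH 7.4 phosphate buffer. MAO-A substrate: 0.5 mM tyramine; MAO-B: 1 mM benzylamine.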

[2] = target: T2, recombinant human MAO-A (monoamine oxidase-A) (Homo sapiens, UniProt P21397); assay: Activity on recombinant human MAO-A, Amplex Red method, 0.5 mM tyramine substrate; settings: read-out: Inhibitory Activity (IC50, nM) MAO-A
T2 construct: purchased Sigma-Aldrich
T2 sequence (P21397 1-527): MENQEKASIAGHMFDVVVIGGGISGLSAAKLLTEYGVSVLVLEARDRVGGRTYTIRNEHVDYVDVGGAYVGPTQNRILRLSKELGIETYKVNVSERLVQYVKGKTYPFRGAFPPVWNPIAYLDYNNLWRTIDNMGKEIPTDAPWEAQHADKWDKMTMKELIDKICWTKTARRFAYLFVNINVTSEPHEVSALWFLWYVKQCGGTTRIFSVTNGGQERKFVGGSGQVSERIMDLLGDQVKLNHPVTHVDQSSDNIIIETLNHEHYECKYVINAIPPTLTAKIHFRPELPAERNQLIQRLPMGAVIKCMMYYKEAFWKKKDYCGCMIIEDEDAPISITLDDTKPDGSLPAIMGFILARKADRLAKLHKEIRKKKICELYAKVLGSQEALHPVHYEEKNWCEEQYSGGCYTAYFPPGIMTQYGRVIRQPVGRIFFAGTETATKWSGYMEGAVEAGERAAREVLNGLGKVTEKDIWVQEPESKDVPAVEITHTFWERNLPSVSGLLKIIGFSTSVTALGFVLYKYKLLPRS
Outline: as §1

[3] = target: T3, recombinant human DAO (diamine oxidase) (Homo sapiens, UniProt P19801); assay: Activity on recombinant human DAO, Amplex Red method, 1 mM putrescine substrate; settings: recombinant human DAO, read-out: Inhibitory Activity (IC50, nM) DAO
T3 construct: purchased R&D systems
T3 sequence (P19801 20-751): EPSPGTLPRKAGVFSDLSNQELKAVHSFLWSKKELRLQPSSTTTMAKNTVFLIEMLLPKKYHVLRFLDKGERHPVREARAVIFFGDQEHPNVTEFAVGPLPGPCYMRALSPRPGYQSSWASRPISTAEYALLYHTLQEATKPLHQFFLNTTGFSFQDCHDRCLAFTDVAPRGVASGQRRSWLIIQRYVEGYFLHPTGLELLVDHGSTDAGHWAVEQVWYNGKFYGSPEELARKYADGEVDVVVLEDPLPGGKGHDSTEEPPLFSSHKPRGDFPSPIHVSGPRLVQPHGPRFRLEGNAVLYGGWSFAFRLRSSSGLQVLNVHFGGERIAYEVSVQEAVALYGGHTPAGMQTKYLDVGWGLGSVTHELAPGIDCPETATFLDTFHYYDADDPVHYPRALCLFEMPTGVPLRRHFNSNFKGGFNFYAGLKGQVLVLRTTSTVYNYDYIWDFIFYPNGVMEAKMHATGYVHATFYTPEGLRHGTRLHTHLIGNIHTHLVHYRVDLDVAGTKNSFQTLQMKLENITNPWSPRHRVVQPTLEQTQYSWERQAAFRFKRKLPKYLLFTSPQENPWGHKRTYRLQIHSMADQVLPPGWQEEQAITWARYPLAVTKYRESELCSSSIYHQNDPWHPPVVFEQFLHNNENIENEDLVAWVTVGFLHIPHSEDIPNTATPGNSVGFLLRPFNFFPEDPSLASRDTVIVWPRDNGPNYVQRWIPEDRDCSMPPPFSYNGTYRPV
Outline: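 Inhibition of recombinant human DAO (diamine oxidase, R&D systems) was assessed with the Amplex Red Hydrogen Peroxide Assay Kit. Hydrogen peroxide produced from 1 mM putrescine was detected through an HRP-coupled reaction that converts Amplex Red into fluorescent resorufin, read at 544 nm excitation and 590 nm emission. IC50 values came from four-parameter logistic fits in GraphPad Prism.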

recombinant human VAP-1 = target: T4, recombinant human VAP-1 (Homo sapiens, UniProt Q16853); assay: Activity on recombinant human VAP-1, Amplex Red HRP-coupled hydrogen peroxide assay, benzylamine substrate; settings: recombinant human VAP-1, benzylamine substrate, read-out: Inhibitory Activity (IC50, nM) human VAP-1
T4 construct: purchased R&D systems
T4 sequence (Q16853 1-763): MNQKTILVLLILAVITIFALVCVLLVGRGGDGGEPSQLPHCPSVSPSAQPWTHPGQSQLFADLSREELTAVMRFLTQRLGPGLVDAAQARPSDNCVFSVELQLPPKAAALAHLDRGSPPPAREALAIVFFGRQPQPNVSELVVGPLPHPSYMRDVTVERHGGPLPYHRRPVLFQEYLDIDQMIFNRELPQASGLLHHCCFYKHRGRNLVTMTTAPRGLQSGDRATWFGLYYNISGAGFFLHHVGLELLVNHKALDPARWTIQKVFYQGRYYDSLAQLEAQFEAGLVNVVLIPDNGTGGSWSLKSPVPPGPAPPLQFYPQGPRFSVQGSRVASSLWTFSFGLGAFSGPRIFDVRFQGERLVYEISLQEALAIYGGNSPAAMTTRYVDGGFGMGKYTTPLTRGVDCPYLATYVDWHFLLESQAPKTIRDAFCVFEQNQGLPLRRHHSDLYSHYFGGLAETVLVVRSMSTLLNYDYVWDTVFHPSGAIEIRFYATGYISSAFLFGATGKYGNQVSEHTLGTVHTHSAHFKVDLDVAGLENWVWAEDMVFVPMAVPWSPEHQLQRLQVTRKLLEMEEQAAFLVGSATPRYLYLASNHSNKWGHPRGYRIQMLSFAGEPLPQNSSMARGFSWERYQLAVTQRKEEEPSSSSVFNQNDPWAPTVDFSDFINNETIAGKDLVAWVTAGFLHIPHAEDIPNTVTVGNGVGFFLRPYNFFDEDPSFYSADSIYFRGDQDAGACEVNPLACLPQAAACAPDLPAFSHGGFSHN
Outline: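 Compounds were preincubated with purified enzyme in 50 mM sodium phosphate pH 7.4 at 37 °C for 30 min, then 200 uM Amplex Red, 1 mM benzylamine and 1 U/mL HRP were added. Resorufin fluorescence (ex 544/em 590 nm) was followed over 1-2 h; IC50 came from 4-parameter fits of signal-rate inhibition.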

[4] = 1 mM putrescine, * = between 10 and 100 nM, ** = between 300 and 1000 nM

COc1ncc(-c2cccc(-n3cnn(C/C(=C/F)CN)c3=O)c2)cc1C(F)(F)F [Example 87, 2-[(2E)-2-(aminomethyl)-3-fluoroprop-2-en-1-yl]-4-{3-[6-methoxy-5-(trifluoromethyl)pyridin-3-yl]phenyl}-2,4-dihydro-3H-1,2,4-triazol-3-one hydrochloride]
IC50 ([1]; 1 mM benzylamine): 22 nM | IC50 ([2]; 0.5 mM tyramine): > 100000 nM | IC50 [3, 4]: < 100 nM | IC50 (recombinant human VAP-1; 30 min preincubation at 37° C.): 1 nM

CN(C)c1cccc(-c2cccc(-n3cnn(C/C(=C/F)CN)c3=O)n2)c1 [Example 174, 2-[(2E)-2-(aminomethyl)-3-fluoroprop-2-en-1-yl]-4-{6-[3-(dimethylamino)phenyl]pyridin-2-yl}-2,4-dihydro-3H-1,2,4-triazol-3-one hydrochloride]
IC50 ([1]; 1 mM benzylamine substrate): 710 nM | IC50 ([2]; 0.5 mM tyramine substrate): > 100000 nM | IC50 ([3]; 1 mM putrescine substrate): 1100 nM | IC50 (recombinant human VAP-1): 2.2 nM

NC/C(=C\F)Cn1ncn(-c2cccc(-c3ccc4c(c3)OCO4)n2)c1=O [Example 193, 2-[(2E)-2-(aminomethyl)-3-fluoroprop-2-en-1-yl]-4-[6-(1,3-benzodioxol-5-yl)pyridin-2-yl]-2,4-dihydro-3H-1,2,4-triazol-3-one]
IC50 ([1]; 1 mM benzylamine substrate): 1160 nM | IC50 ([2]; 0.5 mM tyramine substrate): > 100000 nM | IC50 ([3]; 1 mM putrescine substrate): 38 nM | IC50 (recombinant human VAP-1): 2.5 nM

Cc1cc(-c2cccc(-n3cnn(C/C(=C/F)CN)c3=O)c2)cn(C)c1=O [Example 89, 5-(3-{1-[(2E)-2-(aminomethyl)-3-fluoroprop-2-en-1-yl]-5-oxo-1,5-dihydro-4H-1,2,4-triazol-4-yl}phenyl)-1,3-dimethylpyridin-2(1H)-one hydrochloride]
IC50 ([1]; 1 mM benzylamine): > 10000 nM | IC50 ([2]; 0.5 mM tyramine): > 100000 nM | IC50 [3, 4]: 4.7 nM | IC50 (recombinant human VAP-1; 30 min preincubation at 37° C.): 0.6 nM

NC/C(=C\F)Cn1ncn(-c2cccc(-c3ccc(C(=O)N4CCOCC4)cc3)n2)c1=O [Example 186, 2-[(2E)-2-(aminomethyl)-3-fluoroprop-2-en-1-yl]-4-{6-[4-(morpholin-4-ylcarbonyl)phenyl]pyridin-2-yl}-2,4-dihydro-3H-1,2,4-triazol-3-one hydrochloride]
IC50 ([1]; 1 mM benzylamine substrate): > 10000 nM | IC50 ([2]; 0.5 mM tyramine substrate): > 100000 nM | IC50 ([3]; 1 mM putrescine substrate): < 10 nM | IC50 (recombinant human VAP-1): 0.91 nM

Cc1cc(-n2cnn(C/C(=C/F)CN)c2=O)cnc1-c1ccc2c(c1)OCO2 [Example 117, 2-[(2E)-2-(aminomethyl)-3-fluoroprop-2-en-1-yl]-4-[6-(1,3-benzodioxol-5-yl)-5-methylpyridin-3-yl]-2,4-dihydro-3H-1,2,4-triazol-3-one]
IC50 ([1]; 1 mM benzylamine): 32 nM | IC50 ([2]; 0.5 mM tyramine): > 100000 nM | IC50 [3, 4]: 2.5 nM | IC50 (recombinant human VAP-1; 30 min preincubation at 37° C.): 0.21 nM

NC/C(=C\F)Cn1ncn(-c2cc(/C=C/c3ccccc3)ccn2)c1=O [Example 236, 2-[(2E)-2-(aminomethyl)-3-fluoroprop-2-en-1-yl]-4-{4-[(E)-2-phenylethenyl]pyridin-2-yl}-2,4-dihydro-3H-1,2,4-triazol-3-one hydrochloride]
IC50 ([1]; 1 mM benzylamine substrate): 16 nM | IC50 ([2]; 0.5 mM tyramine substrate): > 10000 nM | IC50 ([3]; 1 mM putrescine substrate): 6.4 nM | IC50 (recombinant human VAP-1): 0.8 nM

CC(=O)Nc1ccc(-c2ccnc(-n3cnn(C/C(=C/F)CN)c3=O)c2)cc1 [Example 166, N-[4-(2-{1-[(2E)-2-(aminomethyl)-3-fluoroprop-2-en-1-yl]-5-oxo-1,5-dihydro-4H-1,2,4-triazol-4-yl}pyridin-4-yl)phenyl]acetamide]
IC50 ([1]; 1 mM benzylamine substrate): 2420 nM | IC50 ([2]; 0.5 mM tyramine substrate): 20700 nM | IC50 ([3]; 1 mM putrescine substrate): < 30 nM | IC50 (recombinant human VAP-1): 0.23 nM

Cc1cc(-c2ccc3cn[nH]c3c2)ncc1-n1cnn(C/C(=C/F)CN)c1=O [Example 126, 2-[(2E)-2-(aminomethyl)-3-fluoroprop-2-en-1-yl]-4-[6-(1H-indazol-6-yl)-4-methylpyridin-3-yl]-2,4-dihydro-3H-1,2,4-triazol-3-one]
IC50 ([1]; 1 mM benzylamine): 133 nM | IC50 ([2]; 0.5 mM tyramine): > 100000 nM | IC50 [3, 4]: < 100 nM | IC50 (recombinant human VAP-1; 30 min preincubation at 37° C.): 0.87 nM

NC/C(=C/F)Cn1ncn(-c2ncc(-c3ccc4c(c3)OCO4)s2)c1=O [Example 232, 2-[(2Z)-2-(aminomethyl)-3-fluoroprop-2-en-1-yl]-4-[5-(1,3-benzodioxol-5-yl)-1,3-thiazol-2-yl]-2,4-dihydro-3H-1,2,4-triazol-3-one hydrochloride]
IC50 ([1]; 1 mM benzylamine substrate): < 100 nM | IC50 ([2]; 0.5 mM tyramine substrate): 24 nM | IC50 ([3]; 1 mM putrescine substrate): < 100 nM | IC50 (recombinant human VAP-1): 0.78 nM

NC/C(=C\F)Cn1ncn(-c2c(F)cc(Br)cc2F)c1=O [Example 22, 2-[(2E)-2-(aminomethyl)-3-fluoroprop-2-en-1-yl]-4-(4-bromo-2,6-difluorophenyl)-2,4-dihydro-3H-1,2,4-triazol-3-one hydrochloride]
IC50 ([1]; 1 mM benzylamine): 146 nM | IC50 ([2]; 0.5 mM tyramine): 12000 nM | IC50 [3, 4]: 420 nM | IC50 (recombinant human VAP-1; 30 min preincubation at 37° C.): 1.4 nM

— US11492335B2, “Aryl or heteroaryl triazolone derivatives or salts thereof, or pharmaceutical compositions comprising the same” (YUHAN CORPORATION, priority 2018, dated 2022)
